# Measured values reported in US20250361230A1, “LATS Inhibitors and Uses Thereof” (The USA, as Represented by the Secretary, Dept. of Heath …, priority 2022, published 2025).
# Where two headings read alike, the source gives them in different places.
# Target: T1, LATS1 Kinase-NanoLuc fusion in HEK-293 cells (Homo sapiens, UniProt O95835)
# T1 construct: host or cells: HEK-293
# T1 sequence (O95835 1-1130): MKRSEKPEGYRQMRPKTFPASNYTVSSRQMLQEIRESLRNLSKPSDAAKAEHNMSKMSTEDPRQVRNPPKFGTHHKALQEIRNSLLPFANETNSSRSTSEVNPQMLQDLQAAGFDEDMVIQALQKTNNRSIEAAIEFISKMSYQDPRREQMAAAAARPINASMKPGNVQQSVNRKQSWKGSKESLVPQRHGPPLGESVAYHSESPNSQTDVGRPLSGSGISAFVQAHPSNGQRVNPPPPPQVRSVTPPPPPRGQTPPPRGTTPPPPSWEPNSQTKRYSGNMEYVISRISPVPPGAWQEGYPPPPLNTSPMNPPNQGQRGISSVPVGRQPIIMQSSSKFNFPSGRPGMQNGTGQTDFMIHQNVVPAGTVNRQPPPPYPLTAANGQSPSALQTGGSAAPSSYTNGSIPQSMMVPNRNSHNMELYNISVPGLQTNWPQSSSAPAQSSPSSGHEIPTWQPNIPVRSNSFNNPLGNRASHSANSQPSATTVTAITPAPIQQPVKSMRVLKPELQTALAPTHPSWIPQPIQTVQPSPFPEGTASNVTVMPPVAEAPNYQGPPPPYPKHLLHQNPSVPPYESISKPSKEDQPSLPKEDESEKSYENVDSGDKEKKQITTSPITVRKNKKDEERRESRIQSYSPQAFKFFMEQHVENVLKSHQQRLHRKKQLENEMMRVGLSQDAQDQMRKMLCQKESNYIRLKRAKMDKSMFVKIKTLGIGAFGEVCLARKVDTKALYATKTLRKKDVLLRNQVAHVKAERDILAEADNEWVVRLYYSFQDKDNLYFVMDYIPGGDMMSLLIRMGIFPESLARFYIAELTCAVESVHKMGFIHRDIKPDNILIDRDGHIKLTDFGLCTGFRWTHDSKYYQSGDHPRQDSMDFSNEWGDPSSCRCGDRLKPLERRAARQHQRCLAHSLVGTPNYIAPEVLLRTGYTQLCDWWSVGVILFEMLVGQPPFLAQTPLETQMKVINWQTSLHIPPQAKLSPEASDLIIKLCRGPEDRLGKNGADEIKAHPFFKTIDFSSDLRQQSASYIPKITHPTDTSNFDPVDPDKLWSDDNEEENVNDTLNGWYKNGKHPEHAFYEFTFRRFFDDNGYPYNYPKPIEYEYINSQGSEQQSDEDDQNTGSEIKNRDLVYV
# Test: NanoBRET target engagement assay in transfected HEK-293 cells, LATS1
# Assay type: cell-based
# Method in brief: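 HEK-293 cells transiently transfected with kinase-NanoLuc fusion plasmid for 22-24 h, then incubated with compound and NanoBRET tracer for 1 hour at 37° C. After substrate plus extracellular NanoLuc inhibitor addition, 460 and 600 nm emissions read; no-tracer-corrected BRET ratio used to derive IC50 values.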
# [1] = Table 32, NanoBRET, HEK-293 cells, read-out: LATS1 (Cellular) IC50
Compound,IC50 [1] [nM],IC50 (cellular) [nM]
"NCC(O)(c1ccc(Cl)cc1)c1ccc(-c2ccnc3[nH]cc(Br)c23)cc1 (centres unmarked) [Compound 1005, 2-amino-1-(4-(3-bromo-1H-pyrrolo[2,3-b]pyridin-4-yl)phenyl)-1-(4-chlorophenyl)ethan-1-ol]",8,
"NCC(O)(c1ccc(Cl)cc1)c1ccc(-c2ccnc3[nH]cc(-c4ccccc4)c23)cc1 (centres unmarked) [Compound 1006, 2-amino-1-(4-chlorophenyl)-1-(4-(3-phenyl-1H-pyrrolo[2,3-b]pyridin-4-yl)phenyl)ethan-1-ol]",283,
"NCC(O)(c1ccc(Cl)cc1)c1ccc(-c2ccnc3[nH]cc(-c4cccnc4)c23)cc1 (centres unmarked) [Compound 1007, 2-amino-1-(4-chlorophenyl)-1-(4-(3-(pyridin-3-yl)-1H-pyrrolo[2,3-b]pyridin-4-yl)phenyl)ethan-1-ol]",309,
"NCC(O)(c1ccc(Cl)cc1)c1ccc(-c2ccnc3[nH]cc(Br)c23)nc1 (centres unmarked) [Compound 1011, 2-amino-1-(6-(3-bromo-1H-pyrrolo[2,3-b]pyridin-4-yl)pyridin-3-yl)-1-(4-chlorophenyl)ethan-1-ol]",24,
"NCC(=O)NCC(O)(c1ccc(Cl)cc1)c1ccc(-c2ccnc3[nH]cc(Cl)c23)cc1 (centres unmarked) [Compound 1021, 2-amino-N-(2-(4-(3-chloro-1H-pyrrolo[2,3-b]pyridin-4-yl)phenyl)-2-(4-chlorophenyl)-2-hydroxyethyl) acetamide]",159,
"Cc1cc(-c2ccnc3[nH]cc(C#N)c23)ccc1[C@@]1(O)[C@H](C)CN(C(=O)CN)C[C@@H]1C [Compound 2005, 4-(4-((3S,4s,5R)-1-glycyl-4-hydroxy-3,5-dimethylpiperidin-4-yl)-3-methylphenyl)-1H-pyrrolo[2,3-b]pyridine-3-carbonitrile]",,46.6
"Cc1cc(-c2ccnc3[nH]cc(C#N)c23)cc(F)c1[C@@]1(O)[C@H](C)CN(C(=O)CNCC(F)(F)F)C[C@@H]1C [Compound 2014, 4-(3-fluoro-4-((3S,4s,5R)-4-hydroxy-3,5-dimethyl-1-((2,2,2-trifluoroethyl)glycyl)piperidin-4-yl)-5-methylphenyl)-1H-pyrrolo[2,3-b]pyridine-3-carbonitrile]",,139

# Other lines, results leading:
IC50 [1] [nM],IC50 (cellular) [nM],Compound
,30.4,"Cc1cc(-c2ccnc3[nH]cc(C#N)c23)cc(F)c1[C@@]1(O)[C@H](C)CN(C2CCS(=O)(=O)CC2)C[C@@H]1C [Compound 2002, 4-(4-((3S,4s,5R)-1-(1,1-dioxidotetrahydro-2H-thiopyran-4-yl)-4-hydroxy-3,5-dimethylpiperidin-4-yl)-3-fluoro-5-methylphenyl)-1H-pyrrolo[2,3-b]pyridine-3-carbonitrile]"
,2.5,"Cc1cc(-c2ccnc3[nH]cc(C#N)c23)cc(F)c1[C@@]1(O)[C@H](C)CN(C(=O)CN)C[C@@H]1C [Compound 2004, 4-(3-fluoro-4-((3S,4s,5R)-1-glycyl-4-hydroxy-3,5-dimethylpiperidin-4-yl)-5-methylphenyl)-1H-pyrrolo[2,3-b]pyridine-3-carbonitrile]"
,< 2.5,"Cc1cc(-c2ccnc3[nH]cc(C#N)c23)cc(F)c1[C@@]1(O)[C@H](C)CN(C(=O)[C@H](N)CO)C[C@@H]1C [Compound 2007, 4-(4-((3S,4S,5R)-1-(D-seryl)-4-hydroxy-3,5-dimethylpiperidin-4-yl)-3-fluoro-5-methylphenyl)-1H-pyrrolo[2,3-b]pyridine-3-carbonitrile]"
,< 2.5,"Cc1cc(-c2ccnc3[nH]cc(C#N)c23)cc(F)c1[C@@]1(O)[C@H](C)CN(C(=O)[C@](C)(N)CO)C[C@@H]1C [Compound 2008, 4-(4-((3S,4s,5R)-1-(2-amino-3-hydroxy-2-methylpropanoyl)-4-hydroxy-3,5-dimethylpiperidin-4-yl)-3-fluoro-5-methylphenyl)-1H-pyrrolo[2,3-b]pyridine-3-carbonitrile]"
,< 2.5,"Cc1cc(-c2ccnc3[nH]cc(C#N)c23)cc(F)c1[C@@]1(O)[C@H](C)CN(C(=O)[C@H](C)N)C[C@@H]1C [Compound 2011, 4-(4-((3S,4R,5R)-1-(L-alanyl)-4-hydroxy-3,5-dimethylpiperidin-4-yl)-3-fluoro-5-methylphenyl)-1H-pyrrolo[2,3-b]pyridine-3-carbonitrile]"
,< 2.5,"CNCC(=O)N1C[C@@H](C)[C@](O)(c2c(C)cc(-c3ccnc4[nH]cc(C#N)c34)cc2F)[C@@H](C)C1 [Compound 2012, 4-(3-fluoro-4-((3S,4s,5R)-4-hydroxy-3,5-dimethyl-1-(methylglycyl)piperidin-4-yl)-5-methylphenyl)-1H-pyrrolo[2,3-b]pyridine-3-carbonitrile]"
,< 2.5,"Cc1cc(-c2ccnc3[nH]cc(C#N)c23)cc(F)c1[C@@]1(O)[C@H](C)CN(C(=O)[C@@H](C)N)C[C@@H]1C [Compound 2015, 4-(4-((3S,4S,5R)-1-(D-alanyl)-4-hydroxy-3,5-dimethylpiperidin-4-yl)-3-fluoro-5-methylphenyl)-1H-pyrrolo[2,3-b]pyridine-3-carbonitrile]"
,< 2.5,"Cc1cc(-c2ccnc3[nH]cc(C#N)c23)cc(F)c1[C@@]1(O)[C@H](C)CN(C(=O)C(N)C(F)(F)F)C[C@@H]1C (stereo partly drawn) [Compound 2017, 4-(4-((3S,4s,5R)-1-(2-amino-3,3,3-trifluoropropanoyl)-4-hydroxy-3,5-dimethylpiperidin-4-yl)-3-fluoro-5-methylphenyl)-1H-pyrrolo[2,3-b]pyridine-3-carbonitrile]"
,< 2.5,"Cc1cc(-c2ccnc3[nH]cc(C#N)c23)cc(F)c1[C@@]1(O)[C@H](C)CN(C(=O)[C@H](CO)N(C)C)C[C@@H]1C [Compound 2023, 4-(4-((3S,4R,5R)-1-(dimethyl-L-seryl)-4-hydroxy-3,5-dimethylpiperidin-4-yl)-3-fluoro-5-methylphenyl)-1H-pyrrolo[2,3-b]pyridine-3-carbonitrile]"
,37.9,"Cc1cc(-c2ccnc3[nH]cc(C#N)c23)cc(F)c1[C@@]1(O)[C@H](C)CNC[C@@H]1C [Compound 2024, 4-(3-fluoro-4-((3S,4s,5R)-4-hydroxy-3,5-dimethylpiperidin-4-yl)-5-methylphenyl)-1H-pyrrolo[2,3-b]pyridine-3-carbonitrile]"
